Data taken from ChEMBL document CHEMBL1201862, “PubChem BioAssay data set” (2004).
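1) Cells in 96-well plates. 2) Compound, 48 h, 5 concentrations. 3) Linear interpolation between surrounding doses. 4) Unreached endpoint = highest concentration. The concentration for 50% growth inhibition is given as GI50.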 The source made the active and inactive calls. Cut-off read from the data, not from the text of the source: active = GI50 up to about 1.1 µM and inactive = higher.

Columns and labels:
Assay in all cases: NCI-60 cell line screen, 48 h
HCT-15 = system: HCT-15
MDA-MB-231 = system: MDA-MB-231
RXF 393 = system: RXF 393
K562 = system: K562
DU-145 = system: DU-145
MCF7 = system: MCF7
RPMI-8226 = system: RPMI-8226
A498 = system: A498
OVCAR-3 = system: OVCAR-3
SN12C = system: SN12C
CAKI-1 = system: CAKI-1
LOX IMVI = system: LOX IMVI
HOP-92 = system: HOP-92
HCC 2998 = system: HCC 2998
NCI-H226 = system: NCI-H226
SK-MEL-5 = system: SK-MEL-5
SNB-75 = system: SNB-75
U-251 = system: U-251
HT-29 = system: HT-29
SK-MEL-28 = system: SK-MEL-28

c1ccc(COC2C3COC(O3)C(OCc3ccccc3)C2OCc2ccccc2)cc1 (configuration not stated)
GI50 (HCT-15): 34 µM | GI50 (MDA-MB-231): > 100 µM (inactive) | GI50 (RXF 393): 45.4 µM (inactive) | GI50 (K562): 27.9 µM (inactive) | GI50 (DU-145): 78.5 µM (inactive) | GI50 (MCF7): 39.1 µM (inactive) | GI50 (RPMI-8226): 12.2 µM (inactive) | GI50 (A498): > 100 µM (inactive) | GI50 (OVCAR-3): 57.8 µM (inactive) | GI50 (SN12C): 13.6 µM (inactive) | GI50 (CAKI-1): > 100 µM (inactive) | GI50 (LOX IMVI): 30.6 µM (inactive) | GI50 (HOP-92): 67.1 µM (inactive) | GI50 (HCC 2998): 14.6 µM (inactive) | GI50 (NCI-H226): 60.7 µM (inactive) | GI50 (SK-MEL-5): 34.4 µM (inactive) | GI50 (SNB-75): 22.8 µM (inactive) | GI50 (U-251): > 100 µM (inactive)

CNc1ccc([N+](=O)[O-])cc1C(=O)N1CCC[C@H]1CO
GI50 (HCT-15): > 100 µM | GI50 (MDA-MB-231): > 100 µM (inactive) | GI50 (RXF 393): > 100 µM (inactive) | GI50 (K562): > 100 µM (inactive) | GI50 (DU-145): > 100 µM (inactive) | GI50 (MCF7): > 100 µM (inactive) | GI50 (RPMI-8226): > 100 µM (inactive) | GI50 (A498): > 100 µM (inactive) | GI50 (SN12C): > 100 µM (inactive) | GI50 (HT-29): > 100 µM (inactive) | GI50 (CAKI-1): > 100 µM (inactive) | GI50 (LOX IMVI): > 100 µM (inactive) | GI50 (HOP-92): > 100 µM (inactive) | GI50 (SK-MEL-28): > 100 µM (inactive) | GI50 (HCC 2998): > 100 µM (inactive) | GI50 (NCI-H226): 19.5 µM (inactive) | GI50 (SK-MEL-5): > 100 µM (inactive) | GI50 (SNB-75): > 100 µM (inactive) | GI50 (U-251): > 100 µM (inactive)

CCOC(=O)c1c2cccccc-2nc1Nc1cccc2c(C)ccnc12
GI50 (HCT-15): 6.31 µM | GI50 (MDA-MB-231): > 10 µM (inactive) | GI50 (RXF 393): > 10 µM (inactive) | GI50 (K562): 4.01 µM (inactive) | GI50 (DU-145): > 10 µM (inactive) | GI50 (MCF7): 8.24 µM (inactive) | GI50 (RPMI-8226): 3.03 µM (inactive) | GI50 (A498): > 10 µM (inactive) | GI50 (OVCAR-3): 4.81 µM (inactive) | GI50 (SN12C): > 10 µM (inactive) | GI50 (HT-29): 4.89 µM (inactive) | GI50 (CAKI-1): > 10 µM (inactive) | GI50 (LOX IMVI): > 10 µM (inactive) | GI50 (HOP-92): > 10 µM (inactive) | GI50 (SK-MEL-28): > 10 µM (inactive) | GI50 (HCC 2998): > 10 µM (inactive) | GI50 (NCI-H226): > 10 µM (inactive) | GI50 (SK-MEL-5): > 10 µM (inactive) | GI50 (U-251): > 10 µM (inactive)

Fc1cc(-c2cc(-c3ccccc3)no2)c(Cl)cc1Cl
GI50 (HCT-15): 36 µM | GI50 (MDA-MB-231): 14.1 µM (inactive) | GI50 (RXF 393): 7.11 µM (inactive) | GI50 (K562): 29.4 µM (inactive) | GI50 (DU-145): > 32.3 µM (inactive) | GI50 (MCF7): 4.25 µM (inactive) | GI50 (RPMI-8226): 6.93 µM (inactive) | GI50 (A498): > 33 µM (inactive) | GI50 (OVCAR-3): 21.6 µM (inactive) | GI50 (SN12C): > 32.4 µM (inactive) | GI50 (HT-29): 15.8 µM (inactive) | GI50 (CAKI-1): 34.5 µM (inactive) | GI50 (LOX IMVI): 13.2 µM (inactive) | GI50 (HOP-92): 7.69 µM (inactive) | GI50 (SK-MEL-28): > 29.8 µM (inactive) | GI50 (SK-MEL-5): 16.4 µM (inactive) | GI50 (SNB-75): > 31.6 µM (inactive) | GI50 (U-251): 10.3 µM (inactive)

COc1cc(C(c2cc(OC)c(OC)c(OC)c2)N2C(=O)CCC2C(=O)O)cc(OC)c1OC (configuration not stated)
GI50 (HCT-15): > 100 µM | GI50 (MDA-MB-231): > 100 µM (inactive) | GI50 (RXF 393): > 100 µM (inactive) | GI50 (K562): > 100 µM (inactive) | GI50 (DU-145): > 100 µM (inactive) | GI50 (MCF7): > 100 µM (inactive) | GI50 (RPMI-8226): > 100 µM (inactive) | GI50 (A498): > 100 µM (inactive) | GI50 (OVCAR-3): > 100 µM (inactive) | GI50 (SN12C): > 100 µM (inactive) | GI50 (HT-29): > 100 µM (inactive) | GI50 (CAKI-1): > 100 µM (inactive) | GI50 (HOP-92): > 100 µM (inactive) | GI50 (SK-MEL-28): > 100 µM (inactive) | GI50 (NCI-H226): > 100 µM (inactive) | GI50 (SK-MEL-5): > 100 µM (inactive) | GI50 (SNB-75): > 100 µM (inactive) | GI50 (U-251): > 100 µM (inactive)

Cc1cn(C2CC(n3cc(Cn4cc(I)c(=O)[nH]c4=O)nn3)C(CO)O2)c(=O)[nH]c1=O (configuration not stated)
GI50 (HCT-15): > 100 µM | GI50 (MDA-MB-231): > 100 µM (inactive) | GI50 (RXF 393): > 100 µM (inactive) | GI50 (DU-145): > 100 µM (inactive) | GI50 (MCF7): > 100 µM (inactive) | GI50 (RPMI-8226): > 100 µM (inactive) | GI50 (A498): > 100 µM (inactive) | GI50 (OVCAR-3): > 100 µM (inactive) | GI50 (SN12C): > 100 µM (inactive) | GI50 (CAKI-1): > 100 µM (inactive) | GI50 (HOP-92): > 100 µM (inactive) | GI50 (SK-MEL-28): > 100 µM (inactive) | GI50 (HCC 2998): > 100 µM (inactive) | GI50 (NCI-H226): > 100 µM (inactive) | GI50 (SK-MEL-5): > 100 µM (inactive) | GI50 (SNB-75): > 100 µM (inactive) | GI50 (U-251): > 100 µM (inactive)

FC(F)(F)c1ccc2c(c1)nc(Cc1ccc(Cl)cc1)n2CC1CCCN2CCCCC12 (configuration not stated)
GI50 (HCT-15): 8.69 µM | GI50 (MDA-MB-231): 3.27 µM (inactive) | GI50 (RXF 393): 10.3 µM (inactive) | GI50 (K562): 4.18 µM (inactive) | GI50 (DU-145): 10 µM (inactive) | GI50 (MCF7): 10.2 µM (inactive) | GI50 (A498): 14.2 µM (inactive) | GI50 (OVCAR-3): 3.8 µM (inactive) | GI50 (SN12C): 9.79 µM (inactive) | GI50 (HT-29): 2.81 µM (inactive) | GI50 (CAKI-1): 14.8 µM (inactive) | GI50 (LOX IMVI): 2.15 µM (inactive) | GI50 (HOP-92): 7.67 µM (inactive) | GI50 (SK-MEL-28): 2.52 µM (inactive) | GI50 (HCC 2998): 2.11 µM (inactive) | GI50 (NCI-H226): 11.9 µM (inactive) | GI50 (SK-MEL-5): 3.89 µM (inactive) | GI50 (SNB-75): 1.59 µM (inactive) | GI50 (U-251): 8.24 µM (inactive)

CC1=C(C(=O)N[C@@H](CC(C)C)C(=O)O)N2C(=O)[C@@H](NC(=O)[C@@H](N)Cc3ccccc3)[C@H]2SC1
GI50 (HCT-15): > 100 µM | GI50 (MDA-MB-231): > 100 µM (inactive) | GI50 (RXF 393): > 100 µM (inactive) | GI50 (K562): > 100 µM (inactive) | GI50 (DU-145): > 100 µM (inactive) | GI50 (MCF7): > 100 µM (inactive) | GI50 (RPMI-8226): > 100 µM (inactive) | GI50 (A498): > 100 µM (inactive) | GI50 (OVCAR-3): > 100 µM (inactive) | GI50 (SN12C): > 100 µM (inactive) | GI50 (CAKI-1): > 100 µM (inactive) | GI50 (LOX IMVI): > 100 µM (inactive) | GI50 (HOP-92): > 100 µM (inactive) | GI50 (SK-MEL-28): > 100 µM (inactive) | GI50 (HCC 2998): > 100 µM (inactive) | GI50 (NCI-H226): > 100 µM (inactive) | GI50 (SK-MEL-5): > 100 µM (inactive) | GI50 (SNB-75): > 100 µM (inactive) | GI50 (U-251): > 100 µM (inactive)
